Test results from US11739132B2, “Separation moieties and methods of use thereof” (Werewolf Therapeutics, Inc., priority 2019, dated 2023).
No end group written: not given here.

Columns and labels:
[1] = test system: conditioned media from tumor, myofibroblast and YAMC cell lines; experiment: FRET steady-state kinetics of conditioned media (enzyme equivalents); assay type: biochemical, mouse; settings: for Secreted activity in conditioned media, steady-state kinetics: tumor cell lines
From the text: (§1) Conditioned media and cell lysate samples were received from Charles River Laboratories for the murine colon cancer cell lines: MC38 (epithelial), CT26 (fibroblast), and CT26 transduced with a lentivirus for doxycyclin-inducible expression of MMP9 (CT26 pLVX MMP9-5T4+dox). An immortalized mouse intestinal myofibroblast cell line (ABM Good #T0565) was used as a control stromal cell line, grown under manufacturer recommended conditions. Conditioned media and cell lysate samples were also received for screening purposes from ABM Good for the immortalized mouse colonic epithelial cell line YAMC (ABM Good #T0567).
(§2) In the end-point screening assays, a fixed titer of 10× concentrated sample and a substrate concentration of 10 μM was used. Values reported in the end-point experiments are initial velocity measurements, in relative fluorescence units (RFU) per second. End-point measurements are a starting point for a screen, but the rate of the reaction is non-linearly related to substrate concentration. Therefore, a more accurate representation of activity would be given by steady-state kinetic measurements covering a range of substrate concentrations. To compare activity across cell lines, the data were treated with a Michaelis-Menten model, and the concentration of equivalent enzyme units [E0] was solved.
Accordingly, initial velocity was measured as a function of substrate concentration, using a 2-fold dilution series from 250 to 1 μM. Data were fitted using non-linear least squares fitting with GraphPad Prism software v 8.0 to the Michaelis-Menten equation:
[formula] where kcat is the rate of product formation under steady-state conditions in units (s^−1), and KM is the Michaelis constant that gives the substrate concentration in molar units (M) at which half maximum velocity of the reaction is produced for a given enzyme, [E0] is the enzyme concentration, and [S] the substrate concentration in (M).
In the assays where purified recombinant enzyme is used, the Michaelis-Menten parameters are as classically defined above. For conditioned media samples, the effective titer of conditioned media per assay was adjusted to approximately a 2× concentrate of the original unprocessed media samples to assure that the detection range matched the signal produced. The enzyme component in the calculation is redefined as a mixture of possible proteases that contribute to the cumulative observed activity, each with intrinsic reactivity toward a substrate. In this case, it is more appropriate to consider kcat and KM as macroscopic constants that represent the overall efficiency of catalysis, and E0 is an enzyme equivalent, expressed in units of concentration. To solve the data fit, kcat/KM can be fixed at that of the recombinant enzyme and enzyme equivalents per cell culture volume can be output. The effective titer of enzyme equivalents in this case can be used to compare the activity produced by the different cell lines.
An immortalized mouse colonic epithelial cell line (YAMC) was used to test activity in the presence of additional control “normal” epithelial cells. YAMC's are given the calculated enzyme equivalents (nM) resulting from all of these steady state experiments, to allow for comparison of the amount of equivalent activity per sample. For example, the YAMC control epithelial cell line produced activity with the ADAM17_2 substrate equivalent to that of 0.52±0.03 nM of ADAM17 recombinant enzyme. This cell line compares directly to MC38, also of epithelial origin, which had activity equivalent to that of 0.32±0.03 nM of ADAM17 recombinant enzyme. […] This cell line required non-standard cell culture conditions, including growth with murine IFNγ, and at low temperature to maintain, and may not be fully representative of epithelial cell lines.

CTSL1 [2] = biological target: T1, CTSL1 (Homo sapiens, UniProt P07711); experiment: In vitro FRET kinetics with CTSL1; assay type: biochemical; settings: 8-mer FRET peptide, Mca/Dnp pair
T1 sequence (P07711 114-333): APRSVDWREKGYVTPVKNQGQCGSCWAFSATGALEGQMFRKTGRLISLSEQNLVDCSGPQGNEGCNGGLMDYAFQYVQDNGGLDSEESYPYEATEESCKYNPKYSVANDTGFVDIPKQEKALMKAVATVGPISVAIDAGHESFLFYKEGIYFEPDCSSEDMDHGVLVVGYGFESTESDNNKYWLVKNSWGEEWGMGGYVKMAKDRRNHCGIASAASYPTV
Description: (§3) Enzymes were activated and assayed following the manufacturer's recommendations.
(§4) For CTSL1, enzyme was activated by pre-incubation in assay buffer (50 mM MES, 5 mM DTT, 1 mM EDTA, pH=6) for 15 min. MSP-MS reactions were then started with the mixing of enzyme and substrate, at final CTSL1 concentration of 0.04 ng/μl (0.77 nM), and peptide substrate concentration at 500 nM.
Additional in vitro kinetic experiments were performed to characterize a new candidate motif for CTSL1 enzyme; the CTSL1_2 motif has the sequence […] (SEQ ID NO: 199). […] Yet, initial experiments with the CTSL1_2 FRET substrate were inconclusive, possibly due to artifacts in the FRET assay; therefore, a new FRET peptide construct was designed with the 9-mer sequence […] (SEQ ID NO: 236).
All of the FRET substrates used in these studies have a methoxycoumarin (Mca) fluorophore and dinitrophenyl-lysyl (Dnp) quencher pair at the N- and C-termini of the sequences, respectively.

[3] = test system: conditioned media from MC38, CT26, CT26 pLVX MMP9-5T4+dox and myofibroblast cell lines; experiment: FRET end-point screen of conditioned media; assay type: biochemical, mouse; settings: conditioned media
From the text: Proteolytic activity was screened in the conditioned media samples by fluorescent resonance energy transfer (FRET) assays with the substrates listed in Table 10.
as §1
(§5) Conditioned media samples were prepared according to the standard protocol using logarithmic phase cells. Briefly, cells were grown for 16h in either serum-free media or in complete media containing 10% fetal bovine serum (FBS). After conditioned media collection, the adherent cells were washed then lysed on plate with non-denaturing lysis buffer to produce a lysed “cell pellet” to capture any activity that remained associated with the cells. All cell culture-derived conditioned media samples, cell lysates from Charles River Laboratories, and cell lysates derived internally were processed with identical methods, to allow comparison between samples.
The resulting conditioned media was buffer exchanged with PBS and concentrated to 10× the original titer as a stock solution.
FBS background controls were therefore used for baseline subtraction at each concentration of substrate throughout the FRET experiments.
as §2

[4] = test system: cell lysates of MC38, CT26, CT26-MMP9+ and myofibroblast cell lines; experiment: FRET assay of cell lysates (cell-associated activity); assay type: biochemical, mouse; settings: for Cleavage activity detected in cell lysates: four cell lines
From the text: as §1, §5
To test for cell pellet-associated FAPa activity, the cell lysates were clarified by ultracentrifugation and then assayed neat in the FRET assay. […] A modest 2-fold greater activity was detected in the three tumor cell lines over the myofibroblast cell line. For comparison, CTSL1 activity was also tested in the cell lysates. CTSL1 is a lysosomal enzyme; therefore, activity toward CTSL1_1 was expected to be similarly abundant in all four cell lines. The ratio of CTSL1_1 cleavage in tumor vs control cell lines in this screening format was ˜1× (grey bars, left-hand bar of each pair, FIG. 41). FAPα (fibroblast activating protein-alpha) is a marker for fibroblast (CT26) and myofibroblast cell lines.

CTSL1 [5] = biological target: T1, CTSL1; experiment: 30-mer tandem linker library MSP-MS, CTSL1; assay type: biochemical
Description: (§6) Protease specificity screening was performed using Multiplexed Substrate Profiling by Mass Spectrometry (MSP-MS), the method described in, e.g. O'Donoghue A. J. et al., Nat Methods., 2012; 9(11): 1095-1100. This method employs a physico-chemically diverse peptide library as substrates for proteases, and reactions are monitored over time with mass spectrometric detection of cleaved products. The resulting cleavages are assessed for specific cleavage in the enzyme-treated sample by comparison with results from a no-enzyme control incubation.
as §3, §4
This hypothesis was tested in the context of the hybrid linker design experiment. Shown in FIG. 46 are the results of cleavage of two matched 30-mer peptides with the following sequences:
(§7) To analyze the catalytic efficiency of candidate tandem linker designs, a tailored library approach using MSP-MS was applied. For the tailored library, a set of nineteen synthetic peptides, 30 amino acids in length (30-mers), were designed to test whether sequence context affects the efficiency of cleavage. Peptides were assayed in a multiplex format together as a substrate library with individual recombinant enzymes, using MSP-MS. For quantitative comparisons, kinetic analysis was performed over a time course, and results are reported either as a catalytic efficiency kcat/KM for well-behaved first-order kinetics, or as observed rates as kobs for more complex kinetic behavior.
(§8) Catalytic efficiency (kcat/KM) estimations were used to rank the top cleaved substrates in the MSP-MS reaction. Peptides were quantified by mass spectrometric label-free quantitation from the MS1 precursor ion peak areas for each peptide. Enzyme progress curves were modeled from six-time point measurements in GraphPad Prism. Data were fitted using non-linear least squares fitting to the first order kinetics equation:
(§9) [formula] where Y=percent product formation or substrate consumption, and t=time. The observed rate is a function of the enzyme concentration [E0], and an observed catalytic efficiency (kcat/KM) in units M^−1s^−1

FAPα = biological target: T2, FAPα (Homo sapiens, UniProt Q12884); experiment: 30-mer tandem linker library MSP-MS, FAPα; assay type: biochemical; settings: at PGGP|AGIG and GP|AGLYAQ respectively
T2 construct: purchased R&D Systems (Bio-techne) 930-ADB-010
T2 sequence (Q12884 1-760): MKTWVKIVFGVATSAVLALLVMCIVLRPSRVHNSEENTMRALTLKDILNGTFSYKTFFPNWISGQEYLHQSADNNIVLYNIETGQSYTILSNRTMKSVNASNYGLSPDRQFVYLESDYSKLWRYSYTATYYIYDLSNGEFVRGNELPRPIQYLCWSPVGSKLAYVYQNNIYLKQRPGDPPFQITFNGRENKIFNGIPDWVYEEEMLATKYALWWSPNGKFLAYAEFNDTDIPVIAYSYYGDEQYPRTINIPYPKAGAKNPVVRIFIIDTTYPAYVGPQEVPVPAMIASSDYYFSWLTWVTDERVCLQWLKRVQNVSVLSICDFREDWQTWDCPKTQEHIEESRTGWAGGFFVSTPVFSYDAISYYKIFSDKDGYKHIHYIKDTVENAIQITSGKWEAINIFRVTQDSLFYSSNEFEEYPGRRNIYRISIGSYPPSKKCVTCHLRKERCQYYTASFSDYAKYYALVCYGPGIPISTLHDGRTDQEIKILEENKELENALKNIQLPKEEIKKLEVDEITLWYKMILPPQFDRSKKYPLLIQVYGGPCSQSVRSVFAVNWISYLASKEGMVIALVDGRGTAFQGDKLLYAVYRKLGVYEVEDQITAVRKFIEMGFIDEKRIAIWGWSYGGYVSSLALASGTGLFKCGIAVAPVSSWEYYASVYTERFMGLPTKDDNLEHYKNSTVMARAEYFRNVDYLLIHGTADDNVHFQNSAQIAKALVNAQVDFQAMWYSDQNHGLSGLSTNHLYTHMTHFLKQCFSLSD
Description: as §6, §3
FAPα activity was tested with fluorescence detection using a generic Z-GP-AMC substrate. For FRET assays, the final enzyme concentration was 5 nM and the buffer was 50 mM TRIS HCl, 1 M NaCl, 1 mg/mL BSA, pH 7.5.
as §7, §8, §9

Hepsin = biological target: T3, Hepsin (Homo sapiens, UniProt P05981); experiment: 30-mer library counter-screening MSP-MS, Hepsin; assay type: biochemical
T3 construct: purchased R&D Systems (Bio-techne) 4776-SE
T3 sequence (P05981 163-417 limits assumed): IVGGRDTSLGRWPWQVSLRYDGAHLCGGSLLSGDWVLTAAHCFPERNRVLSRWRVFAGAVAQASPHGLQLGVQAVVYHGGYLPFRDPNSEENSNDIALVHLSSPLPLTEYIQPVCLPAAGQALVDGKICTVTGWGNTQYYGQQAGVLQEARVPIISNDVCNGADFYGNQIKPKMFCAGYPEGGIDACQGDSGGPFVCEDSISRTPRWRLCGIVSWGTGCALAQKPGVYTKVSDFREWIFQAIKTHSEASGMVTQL
T3 sequence (P05981 1-162 partner limits assumed): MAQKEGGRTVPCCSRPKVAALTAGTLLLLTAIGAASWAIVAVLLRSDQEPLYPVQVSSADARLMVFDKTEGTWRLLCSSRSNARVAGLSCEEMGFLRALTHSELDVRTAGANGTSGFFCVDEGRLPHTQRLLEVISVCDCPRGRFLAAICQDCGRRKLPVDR
Description: as §6, §3
Hepsin was pre-activated overnight at 37° C. in the manufacturer recommended buffer: 100 mM TRIS, 10 mM CaCl2, 150 mM NaCl, 0.05% Brij-35, pH 8.0. Activity was measured with 2.4 or 24 nM enzyme in the buffer: 50 mM TRIS HCl at pH 7.4.
(§10) Counter-screening was performed against the enzymes Thrombin, Factor Xa and Hepsin using this library as well, and for calibration of activity, a positive-control peptide bearing favorable motifs for these enzymes was also designed (ALU30-19).
as §8, §9
(§11) Counter-screening with Thrombin, Factor Xa and Hepsin was also performed following the same analysis. The library peptide Alu30-19 was designed to include authentic sites for each enzyme, for comparison of overall cleavage efficiency as well as cleavage site specificity within each motif. The substrate designed for Factor Xa has the motif FNPR|TFGS (SEQ ID NO: 248), derived from the Factor Xa cleavage site in Thrombin. The substrate motif for Thrombin was FPR|, a common tool substrate motif. The substrate motif for hepsin was RKRR|GSRG (SEQ ID NO: 249) from filaggrin.

Thrombin = biological target: T4, Thrombin (Homo sapiens, UniProt P00734); experiment: 30-mer library counter-screening MSP-MS, Thrombin; assay type: biochemical
T4 construct: purchased R&D Systems (Bio-techne) 2196-SE-200
Description: as §6, §3
Thrombin was activated following the manufacturer's recommended conditions by pre-incubation with the enzyme with thermolysin for 15 min, and then the thermolysin was quenched with 1,10 phenanthroline treatment. Activated thrombin was assayed at 1.2 nM in activation buffer: 50 mM TRIS HCl, 10 mM CaCl2, 150 mM NaCl, 0.05% (w/v) Brij-35, pH 7.5.
as §10, §8, §9, §11

Sequence	Secreted activity in conditioned media, steady-state kinetics [1]	Cleavage of 8-mer FRET substrate by CTSL1 (CTSL1 [2])	Substrate cleavage activity, CT26-MMP9+ cell line ([3]; end-point screen)	Substrate cleavage activity, MC38 and CT26 parental cell lines ([3]; end-point screen)	Substrate cleavage activity, control myofibroblast cell line ([3]; end-point screen)	Cell-associated activity, MC38 vs other cell lines ([4]; cell lysates)	Ratio of cleavage in tumor vs control cell lines, cell lysates ([4]; cell lysates assayed neat)	Cleavage activity detected in cell lysates [4]	−1 site product formation by CTSL1 (CTSL1 [5]; matched 30-mer peptides SEQ ID NO: 207 (CTSL1_1) and 219 (CTSL1_2))	Secreted activity in myofibroblast conditioned media, steady-state kinetics ([1]; myofibroblast)	Substrate cleavage activity in the end-point screen [3]	Cleavage of motif by FAPα (FAPα)	Cell-associated activity in myofibroblasts ([4]; cell lysates)	Activity in three tumor cell lines over myofibroblast cell line, cell lysates ([4]; cell lysates assayed neat)	Relative efficiency of cleavage by hepsin (Hepsin)	Relative efficiency of 30-mer peptide cleavage by thrombin (Thrombin)	Relative efficiency of 30-mer peptide cleavage by CTSL1 (CTSL1 [5])
ALFKSSFP (also: Mca fluorophore and Dnp quencher, places not given here) [CTSL1_1, FRET substrate with Mca fluorophore and Dnp quencher]	no measurable activity above background	highly efficiently	undetectable activity	low activity	undetectable activity	significantly greater in MC38 cells over the myofibroblast, CT26 parental, and CT26-MMP9+ cells	~1 ×	detected in all of the cell lysates	had a −1 site product								
PGGPAGIG (also: Mca fluorophore and Dnp quencher, places not given here) [FAPα_1, FRET substrate with Mca fluorophore and Dnp quencher]	lower activity than that associated with the cell pellet							detected in all four cell lines		no measurable secreted activity	very low, but was still detected in all three tumor cell lines	able to cleave	did have cell-associated activity	2 fold			
RGGGPAGLYAQPLAQKLKSSALFKSSFPGG [Alu30-15]															slightly higher hepsin susceptibility	cleaved at lower efficiency	lower CTSL1 activity
